Test results from patent US5628979A, “Reagent for tumor imaging and therapy” (Antisoma Limited, priority 1991, dated 1997).
Like-named read-outs stand apart in the source and are kept apart here. Where no end group is shown, it is not given here.

Columns and labels:
VLA-4 = conditions: in words; expressed in vitro by tumour cells and resting CD4+ T-cells; see Shimizu et al; cited from earlier work
[1] = system: tumor associated LDV binding sites; test: Binding to tumor associated LDV binding sites / tumor cells in vivo; transportation and clearance; design: species or system nude mice; conditions: in words
Protocol: (§1) In vivo experiments were performed in nude mice bearing HEp-2 and HT29 tumors obtained by injecting the nude mice subcutaneously in both flanks with from 2 to 5×10^6 HEp-2 and HT29 tumor cells and the tumors allowed to grow for three weeks.
(§2) In these experiments the nude tumor bearing mice divided into five groups were each injected subcutaneously with the ^125 I-labelled peptide
(§3) ^125 I-YGGLDVGLDVGGY (SEQ ID NO. 2).
(§4) (SEQ ID No. 2), and the uptake of labelled peptide measured against time. For this purpose the five groups were killed at intervals of 5 minutes, 30 minutes, 1 hour, 3 hours, and 6 hours after injection. At this time the blood and tumors were separately removed, weighed and counted for radioactivity, as well as samples taken from all major organs. […] At this point peptide uptake was 10.3% id per gram in blood, 4.5% id per gram in HEp-2 tumor and 3.0% id per gram in HT29 tumor.

HEp-2 tumor = test: In vivo uptake of 125I-labelled peptide in HEp-2 tumor borne by nude mice (Experiment 2); conditions: 5 minutes after subcutaneous injection
Protocol: as §1, §2, §3, §4

HT29 tumor = test: In vivo uptake of 125I-labelled peptide in HT29 tumor borne by nude mice (Experiment 2); conditions: 5 minutes after subcutaneous injection
Protocol: as §1, §2, §3, §4

[2] = In vivo uptake of 125I-labelled peptide in blood of tumor-bearing nude mice (Experiment 2); conditions: 5 minutes after subcutaneous injection; nude mice bearing HEp-2 and HT29 tumors
Protocol: as §1, §2, §3, §4

activated platelets = conditions: Kloczewiak et al, cited from earlier work

Substance: CS1 sequence of fibronectin: 25-unit oligopeptide having the sequence SEQ ID No. 1 (DELPQLVTLPHPLLHGPEILDVPST)
- binding to VLA-4 (VLA-4): known to bind to the cell adhesion molecule (CAM) VLA-4
- binding to tumor cells in vivo [1]: bind strongly to tumor cells in vivo

Substance: ^125 I-YGGLDVGLDVGGY: radio-labelled thirteen unit peptide YGGLDVGLDVGGY labelled with 125I (also: 125I radiolabel, position not given here)
- peptide uptake in HEp-2 tumor (HEp-2 tumor): 4.5 % id per gram
- peptide uptake in HT29 tumor (HT29 tumor): 3.0 % id per gram
- peptide uptake in blood [2]: 10.3 % id per gram

Substance: HHLQLLKQLLDV [synthetic dodecapeptide, analogue of the γ400-411 residue, containing the LDV triplet (Kloczewiak et al)]
- IC50 (activated platelets; Biochemistry 1989, read-out: concentration for 50% inhibition of fibrinogen binding to activated platelets): > 500 µM
- IC50 (activated platelets; as restated, read-out: concentration necessary to obtain 50% inhibition of fibronectin binding to activated platelets): > 500 µM
